Measurements taken from paper PMC10385664, “Projection of Target Drug Particle Size in Oral Formulations Using the Refined Developability Classification System (rDCS)” (Pharmaceutics, 2023).
Values joined by “and” are separate entries in the source; they are usually repeats but may differ in a detail not shown here. Equal values may be shown once.

Key:
[1] = Disk intrinsic dissolution rate in FaSSIF V1 (µDISS Profiler); format: physicochemical; settings: FaSSIF V1, 37 °C, 100 rpm
Experimental: The experimental design was adapted from a standard experimental protocol published previously. Disks (n = 3) with a surface area of 0.0707 cm^2 were prepared by compressing the APIs into disk dies. For this, 5 to 10 mg of the API was compressed for 1 min at 50 bar using a Mini-IDR Tablet Compression System (Heath Scientific Co. Ltd., Milton Keynes, UK). Loose powder on the disk surface or die was removed with compressed air. […] With the disk surface facing upwards, the dies were placed into round-shaped magnetic stirrers and transferred into 20 mL assay vials. The vials were placed in a heating block and pre-heated FaSSIF V1 (10 mL) was added to each vial to start the dissolution experiments. The disks were rotated at 100 rpm and concentrations were measured in situ with UV-spectroscopy using fiber optic dip probes. Experiments were performed in triplicate.
S.2.6. rDCS Customized Investigations: Intrinsic dissolution rate
(§1) The concentration‐time curves for IDR determination were recorded with in situ UV‐spectroscopy using fiber optic dip probes. […] The buffer was stirred at 100 rpm and spectra were recorded approximately 1 minut e after addition of the stock solution. […]
(§2) Second derivatives of the UV spectra were used to establish the calibration curves. Multiple wavelength ranges were evaluated, and calibration curves were accepted for further investigation when linear […]

[2] = Theoretical IDR from the Levich equation with solubility as input; settings: FaSSIF V1
Text: Dissolution/Transit Balance: Derivation of kdiss based on Intrinsic Dissolution Rate In addition to Equation (S1) (utilizing hdisk and Adisk ra ther than hparticle and Apowder), the Levich equation (Equation (S12)) [11] applies for the dissolution from a rotating disk with a constant surface area under sink conditions and the assumption of convective diffusion without reaction as dissolution mechanism:
where IDR is the intrinsic dissolution rate, D is the diffusion coefficient, ν is the kinematic viscosit y, ω is the rotational velocity and CS is the thermodynamic solubility. The equation can be rewritten to estimate the IDR using the rotational speed of the compressed disk in revolutions per minut e (Equation (S13Error!
For this, a unit conversion factor of 30/π must be applied for the conversion of ω in rad∙s–1 to revolutions per minut e (RPM) in min‐1.
The dissolution rate from the disk surface can be calculated via multiplication of the IDR by the disk surface area Adisk (Equation (S14)):
Equation (S1) (adjusted to the dissolution from a disk surface) and Equation (S14) (Levich equation) were equated to obtain Equation (S15).
Rearrangement of Equation (S15) for hdisk results in an equation for the thickness of the aqueous boundary layer (ABL) of the rotating disk (hdisk) under sink conditions (Equation (S16)): […]

[3] = Conversion of Caco-2 Papp(A⟹B) to effective human permeability (Simcyp Papp–Peff correlation); settings: for estimated/predicted human Peff: estimated from Caco-2 permeability data; for Estimated human Peff: from Papp(A⟹B) without inhibitor, atenolol and propranolol as calibrators
Experimental: The Caco-2 Papp values were averaged. […] Estimated Peff values were used as input for the rDCS and rtarget calculations. […]
μM) to study transporter‐mediated efflux effects. In those experiments, elacridar was included in both compartments during the equilibration time and assay. The starting concentration (C0) was confirmed by […]
Details of the analytical standard method are presented in Ta ble S8. Measurements were performed in duplicate and reference […]
Papp values were averaged. To […]
permeability was monitored during the experiment using fluorimetric analysis. The pre‐defined lucifer […]
The built‐in literature Papp‐Peff […]
propranolol as calibrator substances was used. Estimated Peff values were used as input for the rDCS and rtarget calculations.
Table S8. Details of the LC‐MS/MS method for quantification of API concentrations in Caco‐2 permeability study […]
Acquity™ HSS T3 (1.8 μm) 2.1 x 30 mm (Waters Ltd, Herts, UK) fitted with Column SecurityGuard™ ULTRA Fully Porous Polar C18 cartridge (Phenomenex, […]
Mobile phase A 10 mM ammonium formate + 0.1 % v/v formic acid in water
Mobile phase B 100% Methanol
Gradient time profile 0.60 5 95

[4] = cited from earlier work
[5] = Powder dissolution method for estimating IDR in FaSSIF V1; format: physicochemical; settings: FaSSIF V1, 37 °C, 100 rpm
Experimental: Istradefylline disks could not be prepared because disk compression led to a change in solid state. The IDR of istradefylline was therefore measured (n = 4) according to a published powder dissolution method for estimating rotating disk IDRs. Istradefylline was weighed into an assay vial containing a magnetic crossbar stirrer, in an amount corresponding to approximately twice the amount needed to saturate the medium. The vials were placed in a heating block and 20 mL pre-heated FaSSIF V1 (37.0 ± 0.5 °C) was added to start the dissolution experiments. The medium was stirred at 100 rpm and concentrations were measured with in situ UV-spectroscopy using fiber optic dip probes until a plateau in the dissolution profile was reached. The vials were protected from light with aluminum foil during the entire experiment. […]
as §1, §2

| SMILES | IDR FaSSIF V1 (disk dissolution method) [1] | theoretical IDR (Levich equation with CS as input) [2] [µg/min/cm^2] | estimated/predicted human Peff [3] [×10⁻⁶ cm/s] | Estimated human Peff [3] [×10⁻⁶ cm/s] | solubility at pH 1.0 [4] [mg/mL] | IDR FaSSIF V1 (powder dissolution method) [5] |
| --- | --- | --- | --- | --- | --- | --- |
| Cc1ncc(OC[C@@]2(c3cccc(F)c3)C[C@H]2C(=O)Nc2ccc(F)cn2)c(C)n1 [Lemborexant, lemborexant] | 1.99 ± 0.09 µg/min/cm^2 and 1.99 ± 0.09 ^2 µg/min/cm^2 | 2.24 ± 0.01 | 4.2 | 420 | 1.6 |  |
| C[C@@H](c1ncncc1F)[C@](O)(Cn1cncn1)c1ccc(F)cc1F [Voriconazole, voriconazole] | 84.8 ± 1.4 µg/min/cm^2 and 84.8 ± 1.4 ^2 µg/min/cm^2 |  |  |  |  |  |
| CCn1c(=O)c2c(nc(/C=C/c3ccc(OC)c(OC)c3)n2C)n(CC)c1=O [Istradefylline, istradefylline] |  | 0.346 ± 0.005 | 4.66 | 466 |  | 0.302 ± 0.010 µg/min/cm^2 and 0.302 ± 0.010 ^3 µg/min/cm^2 |
